Data: patent publication US20250230193A1, “CYCLIC COMPOUND HAVING SELECTIVE KRAS INHIBITORY EFFECT ON HRAS AND NRAS” (CHUGAI SEIYAKU KABUSHIKI KAISHA, priority 2022, published 2025)

What was measured:
[1] = biological target: GDP-bound NRAS wild-type protein (Homo sapiens, UniProt P01111); experiment: Binding to NRAS by surface plasmon resonance (SPR), Single Cycle Kinetics; details: KD ratio, GDP-bound NRAS wild-type vs GDP-bound KRAS wild-type, SPR
[2] = biological target: GDP-bound HRAS wild-type protein (Homo sapiens, UniProt P01112); experiment: Binding to HRAS by surface plasmon resonance (SPR), Single Cycle Kinetics; details: KD ratio, GDP-bound HRAS wild-type vs GDP-bound KRAS wild-type, SPR
GDP-bound HRAS wild-type protein, sequence (P01112 whole entry): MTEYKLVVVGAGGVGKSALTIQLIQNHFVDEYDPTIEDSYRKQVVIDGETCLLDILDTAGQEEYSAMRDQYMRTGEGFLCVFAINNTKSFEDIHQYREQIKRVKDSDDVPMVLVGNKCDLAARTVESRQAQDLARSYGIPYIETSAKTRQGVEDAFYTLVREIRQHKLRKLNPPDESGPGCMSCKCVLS

GDP-bound NRAS wild-type protein, sequence (P01111 whole entry): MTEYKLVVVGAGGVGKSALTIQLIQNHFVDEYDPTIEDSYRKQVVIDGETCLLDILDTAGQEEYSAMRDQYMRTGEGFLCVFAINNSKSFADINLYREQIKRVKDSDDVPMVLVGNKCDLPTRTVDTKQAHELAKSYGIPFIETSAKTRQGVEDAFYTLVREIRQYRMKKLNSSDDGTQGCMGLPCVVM

| SMILES | NRAS/KRAS (ratio of KD value for NRAS to KD value for KRAS) [1] | HRAS/KRAS (ratio of KD value for HRAS to KD value for KRAS) [2] |
| --- | --- | --- |
| CCO[C@@H]1C[C@H]2C(=O)NC3(CCC3)C(=O)N(C)[C@@H](C3CCCC3)C(=O)N(C)[C@H](C(=O)N(C)CC)CC(=O)N(C)[C@H]3CCCC/C=C/c4ccc(cc4)C[C@@H](C(=O)N(C)CC(=O)N[C@@H](CCc4cc(F)c(C(F)(F)F)c(F)c4)C(=O)N2C1)N1CC/C=C\C[C@@H](C1=O)N(C)C(=O)CN(C)C(=O)[C@H]([C@@H](C)CC)NC3=O [PP1827, (1S,7S,11R,13S,19S,22S,26S,29S,35S,37Z,47E)-19-cyclopentyl-7-[2-[3,5-difluoro-4-(trifluoromethyl)phenyl]ethyl]-11-ethoxy-N-ethyl-N,3,18,21,25,31,34-heptamethyl-29-[(1S)-1-methylpropyl]-2,5,8,14,17,20,24,27,30,33,55-undecaoxo-spiro[3,6,9,15,18,21,25,28,31,34,41-undecazapentacyclo[24.15.11.2^43,46.1^35,41.0^9,13]pentapentaconta-37,43(54),44,46(53),47-pentaene-16,1′-cyclobutane]-22-carboxamide] | A (a compound having 10 or more and less than 20 is denoted as A) | A (a compound having 10 or more and less than 20 is denoted as A) |
| CCO[C@@H]1C[C@H]2C(=O)NC3(CC(C)(C)C3)C(=O)N(C)[C@@H](C3CCCC3)C(=O)N(C)[C@H](C(=O)N(C)CC)CC(=O)N(C)[C@H]3CCCC/C=C/c4ccc(cc4)C[C@@H](C(=O)N(C)CC(=O)N[C@@H](CCc4cc(F)c(C(F)(F)F)c(F)c4)C(=O)N2C1)N1CC/C=C\C[C@@H](C1=O)N(C)C(=O)CN(C)C(=O)[C@H]([C@@H](C)CC)NC3=O [PP1829] | A (a compound having 10 or more and less than 20 is denoted as A) | B (a compound having 3 or more and less than 10 is denoted as B) |
| CCO[C@@H]1C[C@H]2C(=O)NC3(CC(C)(C)C3)C(=O)N(C)[C@@H](C3CCCC3)C(=O)N(C)[C@H](C(=O)N(C)CC)CC(=O)N(C)[C@H]3CCCC/C=C/c4ccc(cc4)C[C@@H](C(=O)N(C)CC(=O)N[C@@H](CCc4ccc(C(F)(F)F)c(OC)c4)C(=O)N2C1)N1CC/C=C\C[C@@H](C1=O)N(C)C(=O)CN(C)C(=O)[C@H]([C@@H](C)CC)NC3=O [PP1830, (1S,7S,11R,13S,19S,22S,26S,29S,35S,37Z,47E)-19-cyclopentyl-11-ethoxy-N-ethyl-7-[2-[3-methoxy-4-(trifluoromethyl)phenyl]ethyl]-N,3,3′,3′,18,21,25,31,34-nonamethyl-29-[(1S)-1-methylpropyl]-2,5,8,14,17,20,24,27,30,33,55-undecaoxo-spiro[3,6,9,15,18,21,25,28,31,34,41-undecazapentacyclo[24.15.11.2^43,46.1^35,41.0^9,13]pentapentaconta-37,43(54),44,46(53),47-pentaene-16,1′-cyclobutane]-22-carboxamide] | A (a compound having 10 or more and less than 20 is denoted as A) | B (a compound having 3 or more and less than 10 is denoted as B) |
| CCO[C@@H]1C[C@H]2C(=O)NC3(CC(C)(C)C3)C(=O)N(C)[C@@H](C3CCCC3)C(=O)N(C)[C@H](C(=O)N(C)C)CC(=O)N(C)[C@H]3CCCC/C=C/c4ccc(cc4)C[C@@H](C(=O)N(C)CC(=O)N[C@@H](CCc4cc(F)c(C(F)(F)F)c(F)c4)C(=O)N2C1)N1CC/C=C\C[C@@H](C1=O)N(C)C(=O)CN(C)C(=O)[C@H]([C@@H](C)CC)NC3=O [PP1831] | A (a compound having 10 or more and less than 20 is denoted as A) | A (a compound having 10 or more and less than 20 is denoted as A) |
| CCO[C@@H]1C[C@H]2C(=O)NC3(CC(C)(C)C3)C(=O)N(C)[C@@H](C3CCCC3)C(=O)N(C)[C@H](C(=O)N(C)C)CC(=O)N(C)[C@H]3CCCC/C=C/c4ccc(cc4)C[C@@H](C(=O)N(C)CC(=O)N[C@@H](CCc4ccc(C(F)(F)F)c(OC)c4)C(=O)N2C1)N1CC/C=C\C[C@@H](C1=O)N(C)C(=O)CN(C)C(=O)[C@H]([C@@H](C)CC)NC3=O [PP1832] | B (a compound having 3 or more and less than 10 is denoted as B) | B (a compound having 3 or more and less than 10 is denoted as B) |
| CCO[C@@H]1C[C@H]2C(=O)NC3(CCC3)C(=O)N(C)[C@@H](C3CCCC3)C(=O)N(C)[C@H](C(=O)N(C)CC)CC(=O)N(C)[C@H]3CCC/C=C/c4ccc(cc4)C[C@@H](C(=O)N(C)CC(=O)N[C@@H](CCc4ccc(C(F)(F)F)c(OC)c4)C(=O)N2C1)N1CC/C=C\C[C@@H](C1=O)N(C)C(=O)CN(C)C(=O)[C@H]([C@@H](C)CC)NC3=O [PP1834] | A (a compound having 10 or more and less than 20 is denoted as A) | B (a compound having 3 or more and less than 10 is denoted as B) |
| CCO[C@@H]1C[C@H]2C(=O)NC3(CC(C)(C)C3)C(=O)N(C)[C@@H](C3CCCC3)C(=O)N(C)[C@H](C(=O)N(C)CC)CC(=O)N(C)[C@H]3CCC/C=C/c4ccc(cc4)C[C@@H](C(=O)N(C)CC(=O)N[C@@H](CCc4cc(F)c(C(F)(F)F)c(F)c4)C(=O)N2C1)N1CC/C=C\C[C@@H](C1=O)N(C)C(=O)CN(C)C(=O)[C@H]([C@@H](C)CC)NC3=O [PP1835] | A (a compound having 10 or more and less than 20 is denoted as A) | B (a compound having 3 or more and less than 10 is denoted as B) |
| CC[C@H](C)[C@@H]1NC(=O)[C@H](CC)N(C)C(=O)C[C@@H](C(=O)N(C)C)N(C)C(=O)[C@H](C2CCCC2)N(C)C(=O)C2(CC(C)(C)C2)NC(=O)[C@@H]2C[C@H](C)CN2C(=O)[C@H](CCc2ccc(C(F)(F)F)c(OC)c2)NC(=O)CN(C)C(=O)[C@H](Cc2ccc(C)cc2)N2CC/C=C\C[C@@H](C2=O)N(C)C(=O)CN(C)C1=O [PP1836] | A (a compound having 10 or more and less than 20 is denoted as A) | B (a compound having 3 or more and less than 10 is denoted as B) |
| CC[C@H](C)[C@@H]1NC(=O)[C@H](CC(F)F)N(C)C(=O)C[C@@H](C(=O)N(C)CC)N(C)C(=O)[C@H](C2CCCC2)N(C)C(=O)C2(CC(C)(C)C2)NC(=O)[C@@H]2C[C@@H](C)CN2C(=O)[C@H](CCc2ccc(C(F)(F)F)c(Cl)c2)NC(=O)CN(C)C(=O)[C@H](Cc2ccc(C)cc2)N2CC/C=C\C[C@@H](C2=O)N(C)C(=O)CN(C)C1=O [PP1837] | A (a compound having 10 or more and less than 20 is denoted as A) | A (a compound having 10 or more and less than 20 is denoted as A) |
| CC[C@H](C)[C@@H]1NC(=O)[C@H](CC)N(C)C(=O)C[C@@H](C(=O)N(C)C)N(C)C(=O)[C@H](C2CCCC2)N(C)C(=O)C2(CC(C)(C)C2)NC(=O)[C@@H]2C[C@@H](C)CN2C(=O)[C@H](CCc2ccc(C(F)(F)F)c(OC)c2)NC(=O)CN(C)C(=O)[C@H](Cc2ccc(C)cc2)N2CC/C=C\C[C@@H](C2=O)N(C)C(=O)CN(C)C1=O [PP1838] | A (a compound having 10 or more and less than 20 is denoted as A) | A (a compound having 10 or more and less than 20 is denoted as A) |
| CC[C@H](C)[C@@H]1NC(=O)[C@H](CC)N(C)C(=O)C[C@@H](C(=O)N(CC)CC)N(C)C(=O)[C@H](C2CCCC2)N(C)C(=O)C2(CC(C)(C)C2)NC(=O)[C@@H]2C[C@H](C)CN2C(=O)[C@H](CCc2ccc(C(F)(F)F)c(OC)c2)NC(=O)CN(C)C(=O)[C@H](Cc2ccc(C)cc2)N2CC/C=C\C[C@@H](C2=O)N(C)C(=O)CN(C)C1=O [PP1839] | A (a compound having 10 or more and less than 20 is denoted as A) | B (a compound having 3 or more and less than 10 is denoted as B) |
| CCC[C@H]1C(=O)N[C@@H]([C@@H](C)CC)C(=O)N(C)CC(=O)N(C)[C@H]2C/C=C\CCN(C2=O)[C@@H](Cc2ccc(C)cc2)C(=O)N(C)CC(=O)N[C@@H](CCc2ccc(C(F)(F)F)c(OC)c2)C(=O)N2C[C@@H](C)C[C@H]2C(=O)NC2(CCC2)C(=O)N(C)[C@@H](C2CCCC2)C(=O)N(C)[C@H](C(=O)N(C)CC)CC(=O)N1C [PP1840] | A (a compound having 10 or more and less than 20 is denoted as A) | B (a compound having 3 or more and less than 10 is denoted as B) |
| CC[C@H](C)[C@@H]1NC(=O)[C@H](CC)N(C)C(=O)C[C@@H](C(=O)N(CC)CC)N(C)C(=O)[C@H](C2CCCC2)N(C)C(=O)C2(CC(C)(C)C2)NC(=O)[C@@H]2C[C@@H](C)CN2C(=O)[C@H](CCc2ccc(C(F)(F)F)c(OC)c2)NC(=O)CN(C)C(=O)[C@H](Cc2ccc(C)cc2)N2CC/C=C\C[C@@H](C2=O)N(C)C(=O)CN(C)C1=O [PP1841] | AA (a compound having 20 or more is denoted as AA) | A (a compound having 10 or more and less than 20 is denoted as A) |
| CC[C@H](C)[C@@H]1NC(=O)[C@H](CC)N(C)C(=O)C[C@@H](C(=O)N(C)C)N(C)C(=O)[C@H](C2CCCC2)N(C)C(=O)C2(CC(C)(C)C2)NC(=O)[C@@H]2C[C@H](C)CN2C(=O)[C@H](CCc2ccc(C(F)(F)F)c(Cl)c2)NC(=O)CN(C)C(=O)[C@H](Cc2ccc(C)cc2)N2CC/C=C\C[C@@H](C2=O)N(C)C(=O)CN(C)C1=O [PP1844] | A (a compound having 10 or more and less than 20 is denoted as A) | B (a compound having 3 or more and less than 10 is denoted as B) |
| CC[C@H](C)[C@@H]1NC(=O)[C@H](CC)N(C)C(=O)C[C@@H](C(=O)N(C)C)N(C)C(=O)[C@H](C2CCCC2)N(C)C(=O)C2(CC(C)(C)C2)NC(=O)[C@@H]2C[C@@H](C)CN2C(=O)[C@H](CCc2ccc(C(F)(F)F)c(Cl)c2)NC(=O)CN(C)C(=O)[C@H](Cc2ccc(C)cc2)N2CC/C=C\C[C@@H](C2=O)N(C)C(=O)CN(C)C1=O [PP1846] | A (a compound having 10 or more and less than 20 is denoted as A) | B (a compound having 3 or more and less than 10 is denoted as B) |
